{"source": "ChEMBL document CHEMBL1142083", "about": "“Reversible inhibition of mitochondrial protein synthesis during linezolid-related hyperlactatemia” (2007)", "key": {"PBMC [1]": {"test_system": "PBMC", "experiment": "Effect on mitochondrial mass in PBMCs from patient during hyperlactemic phase by V-DAC method relative to control", "type": "functional, Homo sapiens"}, "PBMC [2]": {"test_system": "PBMC", "experiment": "Increase in Cytochrome C oxidase 2 mitochondrial RNA transcripts in PBMCs from patient on a long-term schedule of the drug with hyperlactatemia relative to control", "type": "functional, Homo sapiens"}, "PBMC [3]": {"test_system": "PBMC", "experiment": "Decrease in mitochondrial Cytochrome C oxidase activity in PBMCs from patient on a long-term schedule of the drug with hyperlactatemia relative to control", "set-up": "scale not given: the % may be the effect or the level left"}, "PBMC [4]": {"test_system": "PBMC", "experiment": "Effect on mitochondrial mass in PBMCs from patient during hyperlactemic phase by citrate synthase method relative to control", "type": "functional, Homo sapiens"}, "PBMC [5]": {"test_system": "PBMC", "experiment": "Decrease in mitochondrial Cytochrome C oxidase 2 protein expression in PBMCs from patient on a long-term schedule of the drug with hyperlactatemia relative to control", "type": "functional, Homo sapiens", "set-up": "scale not given: the % may be the effect or the level left"}, "PBMC [6]": {"test_system": "PBMC", "experiment": "Effect on mitochondrial DNA level in PBMCs from patient on a long-term schedule of the drug with hyperlactatemia relative to control", "type": "functional, Homo sapiens"}}}
{"smiles": "CC(=O)NC[C@H]1CN(c2ccc(N3CCOCC3)c(F)c2)C(=O)O1", "note": "[LINEZOLID]", "values": [{"measurement": "Activity", "setting": "PBMC [1]", "value": 60, "unit": "%"}, {"measurement": "Activity", "setting": "PBMC [2]", "value": 297, "unit": "%"}, {"measurement": "Activity", "setting": "PBMC [3]", "value": 51, "unit": "%"}, {"measurement": "Activity", "setting": "PBMC [4]", "value": 59, "unit": "%"}, {"measurement": "Activity", "setting": "PBMC [5]", "value": 16, "unit": "%"}, {"measurement": "Activity", "setting": "PBMC [6]", "value": 82, "unit": "%"}]}
